Test results taken from article PMC6210068 (ACS Omega, 2018).
Blank lines part the entries; values can stand above or below the molecule they belong to.

Assays:
hDAT = hDAT (Homo sapiens, UniProt Q01959); test: Radioligand binding at DAT; settings: 10 μM; [3H]WIN35428; negative = enhanced radioligand binding
DOR = DOR (Homo sapiens, UniProt P41143); test: Radioligand binding at DOR; settings: 10 μM
rat kidney TSPO = rat kidney TSPO (Rattus norvegicus, UniProt P16257); test: Radioligand binding at TSPO; settings: for Ki: TSPO, rat TSPO, [3H]PK11195
KOR = KOR (Homo sapiens, UniProt P41145); test: biochemical; assay type: binding; settings: for Ki: KOR, [3H]U69593, mean ± SEM, N = 2–4
MOR = MOR (Homo sapiens, UniProt P35372); test: biochemical; assay type: binding; settings: for MOR, inhibition of radioligand binding at 10 μM (class): Table 2
Sequence of MOR (P35372 whole entry): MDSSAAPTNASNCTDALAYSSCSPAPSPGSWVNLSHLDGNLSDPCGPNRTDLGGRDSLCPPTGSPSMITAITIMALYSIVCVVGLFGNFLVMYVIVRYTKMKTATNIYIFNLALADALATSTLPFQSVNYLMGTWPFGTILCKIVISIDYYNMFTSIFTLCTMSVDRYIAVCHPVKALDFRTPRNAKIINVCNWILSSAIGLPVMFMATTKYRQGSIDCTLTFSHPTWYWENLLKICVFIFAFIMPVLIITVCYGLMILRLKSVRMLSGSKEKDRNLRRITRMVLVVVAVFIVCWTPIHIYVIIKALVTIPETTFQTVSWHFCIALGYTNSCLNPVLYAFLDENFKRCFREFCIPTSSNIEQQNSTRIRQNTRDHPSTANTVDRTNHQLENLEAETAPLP

Sequence of rat kidney TSPO (P16257 whole entry): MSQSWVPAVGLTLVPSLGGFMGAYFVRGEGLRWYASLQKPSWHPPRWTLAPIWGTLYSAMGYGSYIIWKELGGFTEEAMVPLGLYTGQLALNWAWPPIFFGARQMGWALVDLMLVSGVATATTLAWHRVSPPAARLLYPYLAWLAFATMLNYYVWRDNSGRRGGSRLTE
Sequence of DOR (P41143 whole entry): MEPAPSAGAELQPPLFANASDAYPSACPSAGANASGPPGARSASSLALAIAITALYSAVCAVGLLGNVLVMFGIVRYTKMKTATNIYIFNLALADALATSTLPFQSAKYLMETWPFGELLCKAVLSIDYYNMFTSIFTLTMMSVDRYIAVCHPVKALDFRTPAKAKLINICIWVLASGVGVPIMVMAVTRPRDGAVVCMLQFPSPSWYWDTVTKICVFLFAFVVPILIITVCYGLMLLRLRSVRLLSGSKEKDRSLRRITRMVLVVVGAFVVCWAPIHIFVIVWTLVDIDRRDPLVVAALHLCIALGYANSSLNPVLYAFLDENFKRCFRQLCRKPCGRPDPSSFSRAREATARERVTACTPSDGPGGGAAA
Sequence of KOR (P41145 whole entry): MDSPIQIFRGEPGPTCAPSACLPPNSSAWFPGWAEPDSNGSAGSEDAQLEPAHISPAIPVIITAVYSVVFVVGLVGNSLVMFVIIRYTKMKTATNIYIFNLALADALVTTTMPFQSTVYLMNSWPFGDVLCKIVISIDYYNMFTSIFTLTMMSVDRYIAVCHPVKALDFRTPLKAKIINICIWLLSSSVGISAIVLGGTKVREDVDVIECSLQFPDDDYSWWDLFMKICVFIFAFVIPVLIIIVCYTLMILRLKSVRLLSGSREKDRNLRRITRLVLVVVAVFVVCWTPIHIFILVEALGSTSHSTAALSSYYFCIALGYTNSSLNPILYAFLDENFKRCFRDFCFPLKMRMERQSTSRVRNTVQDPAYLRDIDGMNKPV
Sequence of hDAT (Q01959 whole entry): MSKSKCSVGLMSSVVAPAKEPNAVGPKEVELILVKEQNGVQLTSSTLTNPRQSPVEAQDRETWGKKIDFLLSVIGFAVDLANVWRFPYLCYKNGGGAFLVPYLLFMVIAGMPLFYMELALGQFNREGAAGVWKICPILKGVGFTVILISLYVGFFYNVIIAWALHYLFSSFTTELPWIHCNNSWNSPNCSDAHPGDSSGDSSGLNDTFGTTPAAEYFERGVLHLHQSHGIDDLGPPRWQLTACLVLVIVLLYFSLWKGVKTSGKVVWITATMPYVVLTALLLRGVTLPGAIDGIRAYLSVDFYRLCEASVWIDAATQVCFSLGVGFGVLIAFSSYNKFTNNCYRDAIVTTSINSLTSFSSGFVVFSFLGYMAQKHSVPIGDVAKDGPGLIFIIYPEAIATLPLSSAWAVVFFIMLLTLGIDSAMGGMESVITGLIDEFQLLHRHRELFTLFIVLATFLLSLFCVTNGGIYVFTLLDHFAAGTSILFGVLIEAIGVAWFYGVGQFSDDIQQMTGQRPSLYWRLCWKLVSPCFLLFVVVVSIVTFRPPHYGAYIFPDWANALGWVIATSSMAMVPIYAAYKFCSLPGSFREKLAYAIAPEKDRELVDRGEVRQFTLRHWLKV

Molecule: O[C@@H]1[C@H](O)[C@@H]2C[C@@H]2[C@H]1n1cnc2c(NCc3cccc(Cl)c3)nc(C#Cc3ccc(F)c(F)c3)nc21 [compound 3]
DAT, inhibition, % of control at 10 μM (hDAT): 16%
DOR, inhibition of radioligand binding at 10 μM (class) (DOR; Table 4): ^g (<30% inhibition of radioligand binding at 10 μM)

Molecule: CNC(=O)[C@@]12C[C@@H]1[C@@H](n1cnc3c(NCc4cccc(Cl)c4)nc(Cl)nc31)[C@H](O)[C@@H]2O [compound 5]
TSPO, inhibition of radioligand binding at 10 μM (class) (rat kidney TSPO; Table 1): ^f (<30% inhibition of radioligand binding at 10 μM)
DAT, inhibition, % of control at 10 μM (hDAT): 3%
DOR, inhibition of radioligand binding at 10 μM (class) (DOR; Table 1): ^e (30–50% inhibition of radioligand binding at 10 μM)

Molecule: CNC(=O)[C@@]12C[C@@H]1[C@@H](n1cnc3c(NCc4cccc(Cl)c4)nc(C#Cc4ccccc4Cl)nc31)[C@H](O)[C@@H]2O [compound 8]
Ki (rat kidney TSPO): ~300 nM
DAT, inhibition, % of control at 10 μM (hDAT): 50%
DOR, inhibition of radioligand binding at 10 μM (class) (DOR; Table 1): f (<30% inhibition of radioligand binding at 10 μM)

Molecule: CNC(=O)[C@@]12C[C@@H]1[C@@H](n1cnc3c(NC)nc(C#Cc4ccc(F)c(F)c4)nc31)[C@H](O)[C@@H]2O [compound 11]
TSPO, inhibition of radioligand binding at 10 μM (class) (rat kidney TSPO; Table 1): ^e (30–50% inhibition of radioligand binding at 10 μM)
DAT, inhibition, % of control at 10 μM (hDAT): –322%
DOR, inhibition of radioligand binding at 10 μM (class) (DOR; Table 1): ^e (30–50% inhibition of radioligand binding at 10 μM)

Molecule: CNC(=O)[C@@]12C[C@@H]1[C@@H](n1cnc3c(NC)nc(C#Cc4ccccc4)nc31)[C@H](O)[C@@H]2O [compound 12]
TSPO, inhibition of radioligand binding at 10 μM (class) (rat kidney TSPO; Table 1): ^e (30–50% inhibition of radioligand binding at 10 μM)
DAT, inhibition, % of control at 10 μM (hDAT): –211%
DOR, inhibition of radioligand binding at 10 μM (class) (DOR; Table 1): ^e (30–50% inhibition of radioligand binding at 10 μM)

Molecule: CNC(=O)[C@@]12C[C@@H]1[C@@H](n1cnc3c(NC)nc(C#Cc4ccc(Cl)s4)nc31)[C@H](O)[C@@H]2O [compound 14]
Ki (rat kidney TSPO): 684 ± 175 nM
DOR, inhibition of radioligand binding at 10 μM (class) (DOR; Table 1): ^e (30–50% inhibition of radioligand binding at 10 μM)

Molecule: CNC(=O)[C@@]12C[C@@H]1[C@@H](n1cnc3c(NC)nc(C#Cc4ccc(Br)s4)nc31)[C@H](O)[C@@H]2O [compound 15]
TSPO, inhibition of radioligand binding at 10 μM (class) (rat kidney TSPO; Table 1): ^f (<30% inhibition of radioligand binding at 10 μM)
DAT, inhibition, % of control at 10 μM (hDAT): –235%
DOR, inhibition of radioligand binding at 10 μM (class) (DOR; Table 1): ^e (30–50% inhibition of radioligand binding at 10 μM)

Molecule: CNC(=O)[C@@]12C[C@@H]1[C@@H](n1cnc3c(NC)cc(C#Cc4ccc(Cl)s4)nc31)[C@H](O)[C@@H]2O [compound 16]
TSPO, inhibition of radioligand binding at 10 μM (class) (rat kidney TSPO; Table 1): ^e (30–50% inhibition of radioligand binding at 10 μM)
DAT, inhibition, % of control at 10 μM (hDAT): 1%
DOR, inhibition of radioligand binding at 10 μM (class) (DOR; Table 1): ^e (30–50% inhibition of radioligand binding at 10 μM)

Molecule: Ala2-MePhe4-Glyol5-Enkephalin [compound 99, reference compound]
Kd (MOR; read-out: radioligand Kd, MOR): 1.73 ± 0.14 nM

More lines, main results first:

DAT, inhibition, % of control at 10 μM (hDAT): <20%
Ki (KOR): ~400 nM
Molecule: CNc1nc(C#Cc2ccc(Cl)s2)nc2c1ncn2[C@H]1[C@H](O)[C@H](O)[C@]2(C(=O)OC(C)C)C[C@H]12 [compound 31]
TSPO, inhibition of radioligand binding at 10 μM (class) (rat kidney TSPO; Table 2): ^d (<30% inhibition of radioligand binding at 10 μM)
KOR, inhibition of radioligand binding at 10 μM (class) (KOR; Table 2): ^d (<30% inhibition of radioligand binding at 10 μM)
MOR, inhibition of radioligand binding at 10 μM (class) (MOR): ^d (<30% inhibition of radioligand binding at 10 μM)
DOR, inhibition of radioligand binding at 10 μM (class) (DOR; Table 2): ^d (<30% inhibition of radioligand binding at 10 μM)

Ki (rat kidney TSPO): > 10000 nM
DAT, inhibition, % of control at 10 μM (hDAT): –285%
Ki (KOR): 1210 ± 100 nM
Molecule: CCCCOC(=O)[C@@]12C[C@@H]1[C@@H](n1cnc3c(NC)nc(C#Cc4ccc(Cl)s4)nc31)[C@H](O)[C@@H]2O [compound 32]
MOR, inhibition of radioligand binding at 10 μM (class) (MOR): ^d (<30% inhibition of radioligand binding at 10 μM)
DOR, inhibition of radioligand binding at 10 μM (class) (DOR; Table 2): ^d (<30% inhibition of radioligand binding at 10 μM)

Ki (rat kidney TSPO): > 10000 nM
DAT, inhibition, % of control at 10 μM (hDAT): –196 ± 58%
Ki (KOR): 1090 ± 320 nM
Molecule: CNc1nc(C#Cc2ccc(Cl)s2)nc2c1ncn2[C@H]1[C@H](O)[C@H](O)[C@]2(C(=O)OCCC(C)C)C[C@H]12 [compound 33]
MOR, inhibition of radioligand binding at 10 μM (class) (MOR): ^d (<30% inhibition of radioligand binding at 10 μM)
DOR, inhibition of radioligand binding at 10 μM (class) (DOR; Table 2): ^d (<30% inhibition of radioligand binding at 10 μM)

DAT, inhibition, % of control at 10 μM (hDAT): –50%
Molecule: CNc1nc(C#Cc2ccc(Cl)s2)nc2c1ncn2[C@H]1[C@H](O)[C@H](O)[C@]2(C(=O)O)C[C@H]12 [compound 38]
TSPO, inhibition of radioligand binding at 10 μM (class) (rat kidney TSPO; Table 2): ^d (<30% inhibition of radioligand binding at 10 μM)
KOR, inhibition of radioligand binding at 10 μM (class) (KOR; Table 2): ^d (<30% inhibition of radioligand binding at 10 μM)
MOR, inhibition of radioligand binding at 10 μM (class) (MOR): ^d (<30% inhibition of radioligand binding at 10 μM)
DOR, inhibition of radioligand binding at 10 μM (class) (DOR; Table 2): ^d (<30% inhibition of radioligand binding at 10 μM)

DAT, inhibition, % of control at 10 μM (hDAT): –321%
Molecule: CNC(=O)[C@H]1O[C@@H](n2cnc3c(NC)nc(C#Cc4ccc(Cl)s4)nc32)[C@H](O)[C@@H]1O [compound 45]
KOR, inhibition of radioligand binding at 10 μM (class) (KOR; Table 3): ^e (<30% inhibition of radioligand binding at 10 μM)

DAT, inhibition, % of control at 10 μM (hDAT): –2%
Molecule: O[C@@H]1[C@H](O)[C@@H]2C[C@@H]2[C@H]1n1cnc2c(NCc3cccc(Cl)c3)ncnc21 [compound 48]
TSPO, inhibition of radioligand binding at 10 μM (class) (rat kidney TSPO; Table 4): ^g (<30% inhibition of radioligand binding at 10 μM)
DOR, inhibition of radioligand binding at 10 μM (class) (DOR; Table 4): ^g (<30% inhibition of radioligand binding at 10 μM)

DAT, inhibition, % of control at 10 μM (hDAT): –213%
Molecule: CNc1nc(C#Cc2ccccc2)nc2c1ncn2[C@H]1[C@H](O)[C@H](O)[C@@H]2C[C@@H]21 [compound 49]
TSPO, inhibition of radioligand binding at 10 μM (class) (rat kidney TSPO; Table 4): ^f (30–50% inhibition of radioligand binding at 10 μM)
DOR, inhibition of radioligand binding at 10 μM (class) (DOR; Table 4): ^g (<30% inhibition of radioligand binding at 10 μM)

Ki (rat kidney TSPO): 3570 ± 1820 nM
DAT, inhibition, % of control at 10 μM (hDAT): 17%
Molecule: O[C@@H]1[C@H](O)[C@@H]2C[C@@H]2[C@H]1n1cnc2c(NCC(c3ccccc3)c3ccccc3)nc(C#Cc3ccccc3)nc21 [compound 53]
DOR, inhibition of radioligand binding at 10 μM (class) (DOR; Table 4): ^g (<30% inhibition of radioligand binding at 10 μM)
